IC50 data for six compounds are collected here from PubChem BioAssay AID651601 (Sanford-Burnham Center for Chemical Genomics, 2012).

Holding throughout (assay): chemokine receptor panel antagonism: CCR6, CXCR5, CXCR6, profiling panel, selectivity assay for CXCR6 antagonist project, cell-based, CHO-K1 PathHunter beta-arrestin, luminescence (AID 651601)
Settings in all cases: antagonist mode

In assay [1] the target is C-C chemokine receptor type 6 (Homo sapiens) (UniProt P51684).
Assay [2] has as its target C-X-C chemokine receptor type 5 (Homo sapiens) (UniProt P32302).
Assay [3] concerns the target C-X-C chemokine receptor type 6 (Homo sapiens) (UniProt O00574).
Where [4] appears, read: CCR6, mean of runs, mean IC50 across replicates.
Where [5] appears, read: CXCR5, mean of runs, mean IC50 across replicates.
Where [6] appears, read: CXCR6, mean of runs, mean IC50 across replicates.

What is called IC50 is the concentration that gives 50% inhibition. A lower IC50 goes with greater potency.

C-C chemokine receptor type 6 (Homo sapiens), sequence (P51684 whole entry, looked up): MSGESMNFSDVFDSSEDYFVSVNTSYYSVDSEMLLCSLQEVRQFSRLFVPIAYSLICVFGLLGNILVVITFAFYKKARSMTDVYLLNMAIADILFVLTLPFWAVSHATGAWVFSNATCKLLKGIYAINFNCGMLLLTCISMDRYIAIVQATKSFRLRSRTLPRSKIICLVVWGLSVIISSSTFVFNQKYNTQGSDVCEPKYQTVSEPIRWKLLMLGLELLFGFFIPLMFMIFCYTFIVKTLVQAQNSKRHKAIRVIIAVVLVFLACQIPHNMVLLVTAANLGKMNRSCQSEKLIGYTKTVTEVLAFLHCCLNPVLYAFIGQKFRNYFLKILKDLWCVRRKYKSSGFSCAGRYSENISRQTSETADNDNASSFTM
C-X-C chemokine receptor type 5 (Homo sapiens), sequence (P32302 whole entry, looked up): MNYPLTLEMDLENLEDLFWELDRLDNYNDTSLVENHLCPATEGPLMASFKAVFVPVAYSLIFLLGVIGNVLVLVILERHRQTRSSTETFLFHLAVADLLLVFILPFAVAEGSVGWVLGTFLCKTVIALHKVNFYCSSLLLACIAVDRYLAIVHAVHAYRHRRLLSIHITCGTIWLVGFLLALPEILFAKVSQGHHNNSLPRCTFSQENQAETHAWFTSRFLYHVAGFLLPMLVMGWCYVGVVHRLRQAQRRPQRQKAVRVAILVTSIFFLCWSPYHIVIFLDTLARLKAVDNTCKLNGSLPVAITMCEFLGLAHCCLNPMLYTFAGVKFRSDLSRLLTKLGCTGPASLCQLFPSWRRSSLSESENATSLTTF
C-X-C chemokine receptor type 6 (Homo sapiens), sequence (O00574 whole entry, looked up): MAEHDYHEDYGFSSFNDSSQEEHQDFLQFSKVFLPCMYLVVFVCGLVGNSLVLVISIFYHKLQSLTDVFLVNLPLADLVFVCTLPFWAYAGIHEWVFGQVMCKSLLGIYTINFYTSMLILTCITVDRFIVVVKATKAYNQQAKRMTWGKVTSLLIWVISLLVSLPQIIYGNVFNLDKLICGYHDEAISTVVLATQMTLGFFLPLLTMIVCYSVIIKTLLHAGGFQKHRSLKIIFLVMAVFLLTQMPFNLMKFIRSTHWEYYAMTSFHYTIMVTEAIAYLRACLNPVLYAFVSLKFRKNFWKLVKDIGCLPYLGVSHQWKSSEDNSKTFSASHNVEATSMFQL

Turning to `O=C(CN1C2CCCC1CC(NC(=O)c1ccccc1)C2)Nc1ccccc1` (stereo not drawn), the IC50 in assay [1] (setting [4]) was more than 80 µM; in assay [1] (CCR6, run 1) it was more than 80 µM; in assay [1] (CCR6, run 2), more than 80 µM; in assay [1] (CCR6, run 3) it was more than 80 µM; in assay [1] (CCR6, run 4) it was more than 80 µM; in assay [2] (setting [5]) it was more than 66.6 µM. For the same compound, the IC50 in assay [2] (CXCR5, run 1) is more than 66.6 µM; in assay [2] (CXCR5, run 2) it was more than 66.6 µM; in assay [3] (setting [6]) it was more than 80 µM; in assay [3] (CXCR6, run 1) it was more than 80 µM; in assay [3] (CXCR6, run 2) it was more than 80 µM; in assay [3] (CXCR6, run 3), more than 80 µM. The same compound yielded an IC50 in assay [3] (CXCR6, run 4) of more than 80 µM.

In the case of `COc1cccc(C(=O)NC2CC3CCCC(C2)N3CC(=O)Nc2ccc(N(C)C)cc2)c1` (stereo not drawn), the half-inhibitory concentration (IC50) in assay [1] (setting [4]) is more than 80 µM; in assay [1] (CCR6, run 1) it was more than 80 µM; in assay [1] (CCR6, run 2), more than 80 µM; in assay [1] (CCR6, run 3) it was more than 80 µM; in assay [1] (CCR6, run 4), more than 80 µM; in assay [2] (setting [5]), more than 66.6 µM. Further, the IC50 in assay [2] (CXCR5, run 1) is more than 66.6 µM; in assay [2] (CXCR5, run 2), more than 66.6 µM; in assay [3] (setting [6]) it was more than 80 µM; in assay [3] (CXCR6, run 1), more than 80 µM; in assay [3] (CXCR6, run 2), more than 80 µM; in assay [3] (CXCR6, run 3), more than 80 µM. For the same compound, the IC50 in assay [3] (CXCR6, run 4) is more than 80 µM.

As to `O=C(CN1C2CCCC1CC(NC(=O)c1ccccc1)C2)Nc1ccccc1C(F)(F)F` (stereo not drawn), the IC50 is more than 80 µM in assay [1] (setting [4]); more than 80 µM in assay [1] (CCR6, run 1); more than 80 µM in assay [1] (CCR6, run 2); more than 80 µM in assay [1] (CCR6, run 3); more than 80 µM in assay [1] (CCR6, run 4); more than 66.6 µM in assay [2] (setting [5]). In addition, the half-maximal inhibitory concentration (IC50) was more than 66.6 µM in assay [2] (CXCR5, run 1); more than 66.6 µM in assay [2] (CXCR5, run 2); more than 80 µM in assay [3] (setting [6]); more than 80 µM in assay [3] (CXCR6, run 1); more than 80 µM in assay [3] (CXCR6, run 2); more than 80 µM in assay [3] (CXCR6, run 3). In assay [3] (CXCR6, run 4), this compound had an IC50 of more than 80 µM.

`COc1cc(C(=O)NC2CC3CCCC(C2)N3CC(=O)Nc2ccccc2)cc(OC)c1OC` (stereo not drawn): the concentration for half-maximal inhibition (IC50) in assay [1] (setting [4]) is more than 80 µM; in assay [1] (CCR6, run 1), more than 80 µM; in assay [1] (CCR6, run 2), more than 80 µM; in assay [1] (CCR6, run 3) it was more than 80 µM; in assay [1] (CCR6, run 4) it was more than 80 µM; in assay [2] (setting [5]) it was more than 66.6 µM. In addition, the IC50 was more than 66.6 µM in assay [2] (CXCR5, run 1); more than 66.6 µM in assay [2] (CXCR5, run 2); 14.3 µM in assay [3] (setting [6]); 4.79 µM in assay [3] (CXCR6, run 1); 5.96 µM in assay [3] (CXCR6, run 2); 5.86 µM in assay [3] (CXCR6, run 3). Further, the IC50 in assay [3] (CXCR6, run 4) turned out to be 40.6 µM.

`COc1cccc(C(=O)NC2CC3CCCC(C2)N3CC(=O)Nc2ccccc2C(F)(F)F)c1` (stereo not drawn): the IC50 was more than 80 µM in assay [1] (setting [4]); more than 80 µM in assay [1] (CCR6, run 1); more than 80 µM in assay [1] (CCR6, run 2); more than 80 µM in assay [1] (CCR6, run 3); more than 80 µM in assay [1] (CCR6, run 4); more than 66.6 µM in assay [2] (setting [5]). Further, the IC50 in assay [2] (CXCR5, run 1) is more than 66.6 µM; in assay [2] (CXCR5, run 2) it was more than 66.6 µM; in assay [3] (setting [6]), more than 80 µM; in assay [3] (CXCR6, run 1), more than 80 µM; in assay [3] (CXCR6, run 2), more than 80 µM; in assay [3] (CXCR6, run 3), more than 80 µM. In assay [3] (CXCR6, run 4), this compound came in with a half-maximal inhibitory concentration (IC50) of more than 80 µM.

Turning to `CN(C)c1ccc(NC(=O)CN2C3CCCC2CC(NC(=O)c2ccccc2)C3)cc1` (stereo not drawn), the IC50 is more than 80 µM in assay [1] (setting [4]); more than 80 µM in assay [1] (CCR6, run 1); more than 80 µM in assay [1] (CCR6, run 2); more than 80 µM in assay [1] (CCR6, run 3); more than 80 µM in assay [1] (CCR6, run 4); more than 66.6 µM in assay [2] (setting [5]). Moreover, the half-inhibitory concentration (IC50) was more than 66.6 µM in assay [2] (CXCR5, run 1); more than 66.6 µM in assay [2] (CXCR5, run 2); more than 80 µM in assay [3] (setting [6]); more than 80 µM in assay [3] (CXCR6, run 1); more than 80 µM in assay [3] (CXCR6, run 2); more than 80 µM in assay [3] (CXCR6, run 3). In assay [3] (CXCR6, run 4), the 50% inhibitory concentration (IC50) is more than 80 µM.
